Here are results for five compounds from patent US20220409535A1, “BIOLOGICAL AGENT-EXOSOME COMPOSITIONS AND USES THEREOF” (The University of North Carolina at Chapel Hill, priority 2016, published 2022).

One data set concerns hCMEC/D3 cells. Nature of the data set: Flow cytometry of cell uptake of Mϕ exosomes and endocytosis markers. Type of data set: cell-based, human. The conditions noted are these: for effect on uptake of Mϕ exosomes: CM-DiI labeled exosomes, 4 h; for effect on uptake of respective endocytosis marker: sucrose of transferrin, nystatin of CTB, EIPA of dextran (70 kDa). As to the method:
Flow Cytometry of Cell Uptake. hCMEC/D3 cells were grown in 24-well plates at […] for 4-5 days to reach confluence. Exosomes were labeled by adding CM-DiI dyes (2 μg/ml, Life Technologies) to the medium before the first […] pelleting step. In the uptake mechanism studies, the cells were pretreated with endocytosis inhibitors, carbohydrates or EGTA for 0.5 h, and then co-treated with CM-DiI labeled exosomes (0.6×10^10 exosomes/ml) for 4 h. The inhibition of endocytosis markers uptake was studied similarly. The endocytosis markers used were Alexa Fluor 488-Transferrin (10 μg/ml, Life technologies) for clathrin mediated endocytosis, Alexa Fluor 488-CTB (5 μg/ml, Life technologies) for caveolae mediated endocytosis, and FITC-Dextran (70 kDa, Sigma) (10 mg/ml) for macropinocytosis. The antibody block assays were done by co-incubating exosomes with antibodies or isotope controls at 100 μg/ml for 4 h. The cells were washed trice by PBS, detached by 0.25% trypsin/EDTA, collected by centrifugation at 100 g for 10 min, fixed with 4% paraformaldehyde for 10 min, and then resuspended in 0.35 ml PBS. Viable singlets were gated based on forward scatter and side scatter. 5,000-10,000 viable singlets were recorded for each sample on Becton Dickinson LSRII (BD Biosciences) using 488 nm and 532 nm lasers. Unless otherwise noted in figure legend, data are not normalized and reported as mean fluorescence±SD of 3 replicate wells.

For data set [1] the following is noted: Shinoda et al.; cited from earlier work.
Data set [2] can be described thus: PK and distribution in healthy CD-1 mice. Type of data set: in vivo, mouse. To be noted: jugular vein. As to the method: Iodine Labeling. Exosomes and proteins were labeled with iodine by chloramine-T method (Yi et al., J. Controlled Release 191:34 (2014)). Briefly, exosomes or proteins were mixed with 1 mCi of Na^125I or Na^131I (Perkin Elmer) and 10 μg of chloramine-T in phosphate buffer (0.25 M, pH 7.5) for 60 s. Labeled exosomes and proteins were purified by Illustra Nap-5 columns (Life technologies) and collected in tubes pretreated with 1% BSA in PBS to prevent nonspecific adsorption. The iodine association (iodine in labeled sample/total iodine) was determined by trichloroacetic acid precipitation method (Yi et al., J. Controlled Release 191:34 (2014)). Briefly, 1 μl of purified samples was mixed with 0.5 ml of 1% BSA in PBS and 0.5 ml of 30% TCA, and then centrifuged at 5400 g for 10 min. The resulting pellet and supernatant were counted on r-counter (PerkinElmer). The iodine association was calculated as the percentage of pellet radioactivity to total radioactivity.
Animal Procedure. Mice were anesthetized with 40% urethane (4 g/kg) by intraperitoneal injection. Iodine labeled substances (4×10^5 cpm) were injected to the right jugular vein. At each time point, blood was collected from the left carotid artery, allowed to clot and then centrifuged at 5400 g for 10 min to collect serum. The whole brain and peripheral organs were removed and weighed immediately after blood sampling. The radioactivity of serum and tissues were counted and normalized to injected dose (ID) by volume (ml) or weight (g) (% ID/ml or % ID/g). An injection check representing ID was also counted (n=3).
PK data analysis. The noncompartmental PK parameters Vss (ml), Cl (ml/min), MRTlast and MRTinf (h) were estimated using Phoenix® WinNonlin® 6.3 (Pharsight). The Ki (slope) and Vi (y-intercept) were calculated from the linear portion of multiple-time regression analysis (Price et al., J. Pharmacol. Exper. Ther. 333:253 (2010); Patlak et al., J. Cerebral Blood Flow Metab. 3:1 (1983); Patlak et al., J. Cerebral Blood Flow Metab. 5:584 (1985)). Brain/serum ratio (Am/Cpt, ml/g) of co-injected BSA was used to correct for the vascular space or leakage (Banks et al, Brain Behav. Immun. 2010, 24:102 (2010)), and subtracted from that of tested substance to get the delta brain/serum ratio. The delta brain/serum ratio was plotted against exposure time following equation

For the compound `O=C(O)CN(CCOCCOCCN(CC(=O)O)CC(=O)O)CC(=O)O` [EGTA, ethylene glycol-bis(2-aminoethylether)-N, N, N′, N′-tetraacetic acid], the “effect on uptake of Mϕ exosomes” value with hCMEC/D3 cells is recorded as “decreased”.
For `CCN(c1nc(N)c(C(=O)N=C(N)N)nc1Cl)C(C)C` [EIPA, 5-(N-Ethyl-N-isopropyl) amiloride], in the data set on hCMEC/D3 cells, the “effect on uptake of Mϕ exosomes” value was “significantly decreased the uptake of Mϕ exosomes” and the “effect on uptake of respective endocytosis marker” value is recorded as “diminished uptake of a respective endocytosis marker”.
For `C[C@@H]1[C@H](O)[C@@H](C)/C=C/C=C/CC/C=C/C=C/C=C/C=C/C(O[C@H]2O[C@H](C)[C@@H](O)[C@H](N)[C@@H]2O)CC2O[C@](O)(CC(O)C(O)CCC(O)CC(O)CC(O)CC(=O)O[C@H]1C)CC(O)C2C(=O)O` (stereo partly shown) [nystatin], in the data set with hCMEC/D3 cells, the “effect on uptake of Mϕ exosomes” value is on record as “significantly decreased the uptake of Mϕ exosomes” and the “effect on uptake of respective endocytosis marker” value is on record as “diminished uptake of a respective endocytosis marker”.
On to `OC[C@H]1O[C@@](CO)(O[C@H]2O[C@H](CO)[C@@H](O)[C@H](O)[C@H]2O)[C@@H](O)[C@@H]1O` [sucrose], for which, in the data set on hCMEC/D3 cells, the “effect on uptake of Mϕ exosomes” value is “significantly decreased the uptake of Mϕ exosomes” and the “effect on uptake of respective endocytosis marker” value is “diminished uptake of a respective endocytosis marker”.
On to “^131I-BSA: 131I-labeled bovine serum albumin, co-injected vascular marker”, for which, in data set [1], the “Cl, previously published data” value was 0.0035 mL/min and the “Vss, previously published data” value is 1.5 mL. In addition, in data set [2], the “Cl” value was 0.0039 mL/min, the “MRTinf” value was determined as 6.10 h, the “MRTlast” value is on record as 0.94 h and the “Vss” value amounted to 1.44 mL.
